Assay results as given in US10131645B2, “Benzofurans substituted with primary benzamide as HCV inhibitors” (BRISTOL-MYERS SQUIBB COMPANY, priority 2015, dated 2018).
pEC50: −log10 of the molar value. Like-named read-outs stand apart in the source and are kept apart here.

What was measured:
[1] = tested on: genotype 1b (Con-1) HCV replicon; assay: HCV Replicon Luciferase Assay; format: cell-based; conditions: Hepatitis C virus, 72 h, Huh-7 cells, genotype 1b replicon, Renilla luciferase, 3 days incubation; for pEC50: read-out: EC50 1b (class); for EC50: read-out: EC50 (uM) 1b
Method: The cell lines used to evaluate compounds consist of a human hepatocyte derived cell line (Huh-7) that constitutively expresses a genotype 1b (Con-1) HCV replicon or a genotype 1b (Con-1) HCV replicon with an asparagine replacing the cysteine at amino acid 316, or a genotype 2a (JFH-1) replicon, containing a Renilla luciferase reporter gene. These cells were maintained in Dulbecco's modified Eagle medium (DMEM) containing 10% FBS, 100 U/mL penicillin/streptomycin and 1.0 mg/mL G418.
To evaluate compound efficacy, titrated compounds were transferred to sterile 384-well tissue culture treated plates, and the plates were seeded with HCV replicon cells (50 μL at a density of 2.4×10^3 cells/well) in DMEM containing 4% FBS (final DMSO concentration at 0.5%). After 3 days incubation at 37° C., cells were analyzed for Renilla Luciferase activity using the EnduRen substrate (Promega cat #E6485) according to the manufacturer's directions. Briefly, the EnduRen substrate was diluted in DMEM and then added to the plates to a final concentration of 7.5 μM. The plates were incubated for at least 1 h at 37° C. then read on a Viewlux Imager (PerkinElmer) using a luminescence program. The 50% effective concentration (EC50) was calculated using the four-parameter logistic formula noted above.

HCV = conditions: cited from earlier work

| Structure (SMILES) | pEC50 [1] | other results |
| --- | --- | --- |
| CCNc1cc2oc(-c3ccc(F)cc3)c(C(=O)NC)c2cc1-c1cccc(C(=O)NC(C#N)C(N)=O)c1 (centres unmarked) [Compound 1008] | > 7.00 |  |
| CCNc1cc2oc(-c3ccc(F)cc3)c(C(=O)NC)c2cc1-c1cccc(C(=O)NC(C)(C#N)C2CC2)c1 (centres unmarked) [Compound 1010] | > 7.00 |  |
| CCN(c1cc2oc(-c3ccc(F)cc3)c(C(=O)NC)c2cc1-c1cccc(C(=O)NC(c2ccccn2)C(F)(F)F)c1)S(C)(=O)=O (centres unmarked) [Compound 2002] | > 7.00 |  |
| CCNc1cc2oc(-c3ccc(F)cc3)c(C(=O)NC)c2cc1-c1cccc(C(=O)NC(C)(C(=O)OC)C(F)(F)F)c1 (centres unmarked) [Compound 1005] | > 7.00 |  |
| CNC(=O)c1c(-c2ccc(F)cc2)oc2cc(N(CCF)S(C)(=O)=O)c(-c3cccc(C(=O)N[C@@H](CO)C4CC4)c3)cc12 [Compound 4003] | > 7.00 |  |
| CCN(C(=O)C(F)(F)F)c1cc2oc(-c3ccc(F)cc3)c(C(=O)NC)c2cc1-c1cccc(C(=O)NC(C(=O)OC)C(F)(F)F)c1 (centres unmarked) [Compound 7001] | 6.00 to 7.00 |  |
| CCNc1cc2oc(-c3ccc(F)cc3)c(C(=O)NC)c2cc1-c1cccc(C(=O)NC(C2CC2)C(F)(F)F)c1 (centres unmarked) [Compound 1011] |  | EC50 [1]: 0.0128 µM |
| CCN(c1cc2oc(-c3ccc(F)cc3)c(C(=O)NC)c2cc1-c1cccc(C(=O)NC(C(=O)OC)C(F)(F)F)c1)S(C)(=O)=O (centres unmarked) [Compound 2005] | 6.00 to 7.00 |  |
| CCNc1cc2oc(-c3ccc(F)cc3)c(C(=O)NC)c2cc1-c1cccc(C(=O)NCC(C)(C)c2ccccc2)c1 [Compound 1003] | > 7.00 |  |
| CNC(=O)c1c(-c2ccc(F)cc2)oc2cc(N(CCCF)S(C)(=O)=O)c(-c3cccc(C(=O)NC(C4CC4)C(F)(F)F)c3)cc12 (centres unmarked) [Compound 5001] |  | EC50 [1]: 0.0229 µM |
| CCN(c1cc2oc(-c3ccc(F)cc3)c(C(=O)NC)c2cc1-c1cccc(C(=O)NC(C)(C#N)C2CC2)c1)S(C)(=O)=O (centres unmarked) [Compound 2009] |  | EC50 [1]: 0.0032 µM |
| CCNc1cc2oc(-c3ccc(F)cc3)c(C(=O)NC)c2cc1-c1cccc(C(=O)NCC(F)(F)c2ccccc2)c1 [Compound 1001] |  | EC50 [1]: 0.0486 µM |
| CCN(CC)c1cc2oc(-c3ccc(F)cc3)c(C(=O)NC)c2cc1-c1cccc(C(=O)NC(C(N)=O)c2ccccc2)c1 (centres unmarked) [Compound 6001] | > 7.00 |  |
| CCNc1cc2oc(-c3ccc(F)cc3)c(C(=O)NC)c2cc1-c1cccc(C(=O)NCC(C)(C)c2ccc(Cl)cc2)c1 [Compound 1004] | > 7.00 |  |
| CNC(=O)c1c(-c2ccc(F)cc2)oc2cc(N(CCCF)S(C)(=O)=O)c(-c3cccc(C(=O)NC(c4ccccn4)C(F)(F)F)c3)cc12 (centres unmarked) [Compound 5002] | > 7.00 |  |
| CCN(CC)c1cc2oc(-c3ccc(F)cc3)c(C(=O)NC)c2cc1-c1cccc(C(=O)NCC(C(=O)O)C(F)(F)F)c1 (centres unmarked) [Compound 6005] | 6.00 to 7.00 |  |
| CNC(=O)c1c(-c2ccc(F)cc2)oc2cc(N(CCF)S(C)(=O)=O)c(-c3cccc(C(=O)N[C@H](COC)C4CC4)c3)cc12 [Compound 4001] | > 7.00 |  |

| Structure (SMILES) | pEC50 [1] | other results |
| --- | --- | --- |
| CCN(c1cc2oc(-c3ccc(F)cc3)c(C(=O)NC)c2cc1-c1cccc(C(=O)NC(C(N)=O)c2ccccc2)c1)S(C)(=O)=O (centres unmarked) [Compound 2007] | 6.00 to 7.00 |  |
| CCN(CC)c1cc2oc(-c3ccc(F)cc3)c(C(=O)NC)c2cc1-c1cccc(C(=O)N[C@@H](CO)C(N)=O)c1 [Compound 6002] | 6.00 to 7.00 |  |
| CCNc1cc2oc(-c3ccc(F)cc3)c(C(=O)NC)c2cc1-c1cccc(C(=O)NC(C(=O)OC)C(F)(F)F)c1 (centres unmarked) [Compound 1012] | 6.00 to 7.00 |  |
| CNC(=O)c1c(-c2ccc(F)cc2)oc2cc(N(CCO)S(C)(=O)=O)c(C3CC3)cc12 [HCV-796] |  | hepatic toxicity (HCV; extended dosing of the combination regimens): hepatic toxicity observed; HCV RNA levels in patients (HCV; patients, single agent transient, more robust with interferon and ribavirin): reduce HCV RNA levels |
| CNC(=O)c1c(-c2ccc(F)cc2)oc2cc(N(CCF)S(C)(=O)=O)c(-c3cccc(C(=O)N[C@@H](COC)C4CC4)c3)cc12 [Compound 4002] | > 7.00 |  |
| CCOc1cc(C(C#N)NC(=O)c2cccc(-c3cc4c(C(=O)NC)c(-c5ccc(F)cc5)oc4cc3N(CC)S(C)(=O)=O)c2)ccc1OC(C)C (centres unmarked) [Compound 2008] | > 7.00 |  |
| CCNc1cc2oc(-c3ccc(F)cc3)c(C(=O)NC)c2cc1-c1cccc(C(=O)NCC(F)(F)c2ccccn2)c1 [Compound 1002] | > 7.00 |  |
| CCN(c1cc2oc(-c3ccc(F)cc3)c(C(=O)NC)c2cc1-c1cccc(C(=O)NC(C2CC2)C(F)(F)F)c1)S(C)(=O)=O (centres unmarked) [Compound 2003] | > 7.00 |  |
| CCNc1cc2oc(-c3ccc(F)cc3)c(C(=O)NC)c2cc1-c1cccc(C(=O)NC(C#N)C(=O)NC)c1 (centres unmarked) [Compound 1007] | > 7.00 |  |
| CNC(=O)c1c(-c2ccc(F)cc2)oc2cc(N(CCCF)S(C)(=O)=O)c(-c3cccc(C(=O)NC(C)(C#N)C4CC4)c3)cc12 (centres unmarked) [Compound 5003] | > 7.00 |  |
| CNC(=O)c1c(-c2ccc(F)cc2)oc2cc(N(CC3CC3)S(C)(=O)=O)c(-c3cccc(C(=O)NC(C)(C#N)C4CC4)c3)cc12 (centres unmarked) [Compound 3001] | > 7.00 |  |
| CCN(CC)c1cc2oc(-c3ccc(F)cc3)c(C(=O)NC)c2cc1-c1cccc(C(=O)N[C@]2(C(=O)O)C[C@@H]2CO)c1 [Compound 6004] |  | EC50 [1]: 0.946 µM |
| CCNc1cc2oc(-c3ccc(F)cc3)c(C(=O)NC)c2cc1-c1cccc(C(=O)NC[C@H](F)CO)c1 [Compound 1009] | > 7.00 |  |
| CCN(c1cc2oc(-c3ccc(F)cc3)c(C(=O)NC)c2cc1-c1cccc(C(=O)NC(c2ccccc2)C(F)(F)F)c1)S(C)(=O)=O (centres unmarked) [Compound 2001] | > 7.00 |  |
| CCN(c1cc2oc(-c3ccc(F)cc3)c(C(=O)NC)c2cc1-c1cccc(C(=O)NC(C#N)c2ccccc2)c1)S(C)(=O)=O (centres unmarked) [Compound 2006] | > 7.00 |  |
| CCNc1cc2oc(-c3ccc(F)cc3)c(C(=O)NC)c2cc1-c1cccc(C(=O)NC(C#N)c2ccccc2)c1 (centres unmarked) [Compound 1006] |  | EC50 [1]: 0.0162 µM |
| CCN(c1cc2oc(-c3ccc(F)cc3)c(C(=O)NC)c2cc1-c1cccc(C(=O)NC(c2cccnc2)C(F)(F)F)c1)S(C)(=O)=O (centres unmarked) [Compound 2004] |  | EC50 [1]: 0.0096 µM |
